Laboratory results from PMC8963105, “A Novel Modulator of the Renin–Angiotensin System, Benzoylaconitine, Attenuates Hypertension by Targeting ACE/ACE2 in Enhancing Vasodilation and Alleviating Vascular Inflammation” (Frontiers in Pharmacology, 2022).

What was measured:
[1] = tested on: p-IKB-α; experiment: phosphorylation of IKB-α in aorta of SHRs (Western blot); format: in vivo, rat; details: oral 14 days
Description: (§1) All three MDAs (BAC, BMC, and BHC) were purchased from Nature-Standard Co., Ltd. (Shanghai, China) and their purities were all over 98%. The anti-hypertensive effects of MDAs were studied in both acute and chronic experiments. The 16-week-old SHRs were used in animal experiments, and each group had six rats. In the acute experiment, drug administration was via i.v. injection. For i.v. injection, the animals were randomly assigned into four groups: vehicle (0.1% DMSO–0.9% salt solution, n = 6), low-dose group (0.6 mg kg^−1 body weight, n = 6), medium-dose group (2 mg kg^−1 body weight, n = 6), and high-dose group (6 mg kg^−1 body weight, n = 6). The drug was administered using a venous catheter. In chronic experiments, the animals were randomly assigned into five groups: vehicle (5% Tween 80–0.9% salt solution, n = 6), captopril group (5 mg kg^−1 body weight, n = 6), low-dose group (3 mg kg^−1 body weight, n = 6), medium-dose group (10 mg kg^−1 body weight, n = 6), and high-dose group (30 mg kg^−1 body weight, n = 6). Oral administration with drug or 5% Tween 80–0.9% salt solution was carried out once a day, and continued for 14 days. […] Blood pressure was recorded in real time.
(§2) The cell samples and tissue sample were collected and placed in ice rapidly. […] Protein concentration in cell lysates was measured using a Bio-Rad DC Protein Assay Kit […]. […]

[2] = tested on: ACE; experiment: ACE protein expression in HUVECs (Western blot, immunofluorescence); format: cell-based, human; details: 24 h
Description: Human umbilical vein endothelial cells (HUVECs) were isolated from umbilical cords as previously described ([Jaffe et al., 1973]). They were purchased from ATCC (cat# CRL-1444, Manassas, VA, United States) and cultured in endothelial cell medium (ECM, ScienCell, Carlsbad, CA, United States) supplemented with 5% FBS, 1% endothelial cell growth supplement, and 1% antibiotics (Sigma, St. Louis, MO, United States). Cells harvested between the third and tenth passages were used in the experiments. Cells were cultured until they were ∼80% confluent. […]
After treatment with different concentrations of BAC (Control, DMSO, 25, 50, and 100 μM, dissolved in 0.1% DMSO–DMEM) for 24 h, the cells were washed with PBS three times, fixed in 4% paraformaldehyde for 20 min, permeabilized with 0.3% Triton X-100 for 20 min, and then blocked with 5% BSA for 30 min at room temperature of 25°C. […] The samples were analyzed using a confocal laser scanning microscope (Zeiss LSM 510 META, Oberkochen, Germany).
as §2

[3] = tested on: ACE; experiment: ACE expression in aorta of SHRs (Western blot, tissue immunofluorescence); format: in vivo, rat; details: oral 14 days
Description: as §1, with “time. […]” for “time.”
as §2

[4] = tested on: Ang I; experiment: serum Ang I by ELISA in SHRs after 14-day oral administration; format: in vivo, rat; details: oral 14 days
Description: All three MDAs (BAC, BMC, and BHC) were purchased from Nature-Standard Co., Ltd. (Shanghai, China) and their purities were all over 98%. The anti-hypertensive effects of MDAs were studied in both acute and chronic experiments. The 16-week-old SHRs were used in animal experiments, and each group had six rats. In the acute experiment, drug administration was via i.v. injection. For i.v. injection, the animals were randomly assigned into four groups: vehicle (0.1% DMSO–0.9% salt solution, n = 6), low-dose group (0.6 mg kg^−1 body weight, n = 6), medium-dose group (2 mg kg^−1 body weight, n = 6), and high-dose group (6 mg kg^−1 body weight, n = 6). The drug was administered using a venous catheter. […] Blood pressure was recorded in real time.
Blood samples were collected from the left femoral artery of rats at the end point, followed by centrifugation at 1,000 × g for 15 min at 4°C. […] The concentrations of circulating ACE, ACE2, Ang I, Ang II, Ang (1–7), TNF-α, and IL-6 in serum were measured using the ELISA kits [ACE, cat#xy-R2401c, X-Y Biotechnology, Shanghai, China; ACE2, cat#xy-ACE2-Ra, X-Y Biotechnology; Ang I, cat#xy-E12541, X-Y Biotechnology; Ang II, cat#xy-R1430c, X-Y Biotechnology; Ang (1–7), cat#xy-Ang1-7-Ra, X-Y Biotechnology; TNF-α, cat#GM1149, Servicebio, Shanghai, China; IL-6, cat#GM1154, Servicebio] according to the manufacturer’s instructions. […]

For CCN1CC2(COC)C(O)CC(OC)C34C5CC6(O)C(OC)C(O)C(O)(C5C6OC(=O)c5ccccc5)C(C(OC)C23)C14 (centres unmarked) [BAC, Benzoylaconitine], the “phosphorylation of IKB-α” value [1] was “downregulated”, the “protein expression of ACE” value ([2]; HUVECs, 25, 50, 100 μM) was “inhibit the expression of ACE” and the ACE protein degradation ([2]; HUVECs, BAC 100 μM with or without proteasome inhibitor MG132 20 or 40 nM) was “promote ACE protein degradation”. For the same molecule, the “ACE expression in the aorta” value [3] was “significantly downregulated” and the “level of Ang I in blood” value [4] was “did not change”.
